# Experimental data published in patent US12552771B2, “Carboxylic acid containing azetidinyl compounds for the treatment of neurodegenerative diseases” (Celgene Corporation, priority 2021, dated 2026).
# Biological target: T1, S1P5 receptors (Homo sapiens, UniProt Q9H228)
# T1 construct: expressed in transfected cells; host or cells: CHO cells (membranes)
# Test: [35S]-GTPγS binding assay with CHO-S1P5 receptor membranes
# Assay type: biochemical
# Conditions: membranes of CHO cells expressing recombinant S1P5 receptors; measure of S1P5 agonism
# Protocol: CHO cells expressing recombinant S1P5 receptors were cultured in 500 cm^2 culture trays and, once confluent, rinsed and detached with cell-lifting buffer (10 mM HEPES, 154 mM NaCl, 6.85 mM EDTA, pH 7.4). Cells were then pelleted by centrifugation, resuspended, and homogenized in membrane preparation buffer (10 mM HEPES and 10 mM EDTA, pH 7.4) using a Polytron PT 1200E homogenizer (Kinematica, Luzern, Switzerland). Cellular proteins were pelleted by centrifugation at 48,000×g at 4° C. for 30 minutes. The resulting supernatant was discarded, and the pellet was re-suspended again in membrane preparation buffer, homogenized for a second time, and then centrifuged again as described above. The final cellular protein pellet was suspended in ice cold resuspension buffer (10 mM HEPES and 0.1 mM EDTA, pH 7.4), divided into aliquots, and stored at −80° C. until use.
# Functional binding assays for [^35]-GTPγS were performed in 96-well non-binding surface plates with a final volume of 200 μL. The test compounds were serially diluted in DMSO and added to assay plates using a Tecan D300E digital printer with a total volume of […]. The control sphingosine-1-phosphate (SiP) was prepared separately by preparing a 400 μM stock solution from a 100 nmol pellet of SiP in 10 mM Na2CO3 with 2% […]. The serial dilution of SiP was done using complete assay buffer (20 mM HEPES, 10 mM MgCl2, 100 mM NaCl, 1 mM EDTA, 0.1% fatty acid free bovine serum albumin (BSA), and 30 μg/mL saponin, pH 7.4) and transferred to wells already containing 0.4 μL DMSO. All the wells were then loaded to a total volume of 40 μL of complete assay buffer, except the non-specific binding (NSB) wells. For NSB wells, 40 μL/well of 50 μM GTPγS (Sigma Aldrich, cat #G8634, St. Louis, MO) was added to wells containing 0.4 μL of DMSO. The assay was started by the addition of 120 μL/well of CHO-S1P receptor membrane solution containing 40 μg/mL of membrane protein, 16.67 μM guanosine diphosphate (GDP; Sigma Aldrich, cat #G7127, St. Louis, MO), and 2.5 mg/mL of WGA PVT SPA beads in complete buffer. Assay plates were then sealed and incubated at room temperature with gentle agitation for 30 minutes. Next, 40 μL/well of 1 nM of [^35]-GTPγS (PerkinElmer, cat #NEG030X250UC, Waltham, MA) in basic assay buffer (20 mM HEPES, 10 mM MgCl2, 100 mM NaCl, and 1 mM EDTA, pH7.4) was added to the assay plates to yield a final concentration of 200 pM and the plates were further incubated for 40 minutes at room temperature with gentle agitation. The assay was terminated by centrifugation of the plates at 1000 rpm for 3 minutes using an Eppendorf 5810R centrifuge (Eppendorf, Hamburg, Germany) and G protein bound radioactivity was quantitated using a MicroBeta2 microplate scintillation counter (PerkinElmer, Waltham, MA). As G protein bound radioactivity directly correlates to receptor activation and coupling to the G protein, this assay is a measure of S1P5 agonism.
# T1 sequence (Q9H228 whole entry): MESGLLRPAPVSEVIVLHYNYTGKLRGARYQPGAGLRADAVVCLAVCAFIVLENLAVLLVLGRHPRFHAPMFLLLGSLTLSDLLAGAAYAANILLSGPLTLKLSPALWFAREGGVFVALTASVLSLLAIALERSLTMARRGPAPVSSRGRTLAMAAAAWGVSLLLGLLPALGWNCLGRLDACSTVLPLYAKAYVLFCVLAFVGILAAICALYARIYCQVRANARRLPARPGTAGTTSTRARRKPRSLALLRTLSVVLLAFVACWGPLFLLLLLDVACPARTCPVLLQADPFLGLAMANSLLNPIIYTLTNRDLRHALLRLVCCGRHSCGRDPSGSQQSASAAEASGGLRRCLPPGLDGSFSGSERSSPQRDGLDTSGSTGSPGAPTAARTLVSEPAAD
row,EC50 [nM],Compound
1,1000 to 10000,"O=C(O)C1CN(C2CCc3cc(C4CN(c5cccc(F)c5)C4)ccc32)C1 (single isomer, unassigned) [Compound 8a, 1-(5-(1-(3-fluorophenyl)azetidin-3-yl)-2,3-dihydro-1H-inden-1-yl)azetidine-3-carboxylic acid]"
2,100 to 1000,"O=C(O)C1CN(C2CCc3cc(C4CN(c5cccc(F)c5)C4)ccc32)C1 (single isomer, unassigned) [Compound 8b, 1-(5-(1-(3-fluorophenyl)azetidin-3-yl)-2,3-dihydro-1H-inden-1-yl)azetidine-3-carboxylic acid]"
3,≤ 10,"O=C(O)C1CCN(C2CCc3cc(N4CC(c5c(F)cccc5F)C4)ccc32)CC1 (single isomer, unassigned) [Compound 9a, 1-(5-(3-(2,6-difluorophenyl)azetidin-1-yl)-2,3-dihydro-1H-inden-1-yl)piperidine-4-carboxylic acid]"
4,100 to 1000,"O=C(O)C1CCN(C2CCc3cc(N4CC(c5c(F)cccc5F)C4)ccc32)CC1 (single isomer, unassigned) [Compound 9b, 1-(5-(3-(2,6-difluorophenyl)azetidin-1-yl)-2,3-dihydro-1H-inden-1-yl)piperidine-4-carboxylic acid]"
5,10 to 100,"O=C(O)C1CCN(C2CCc3cc(N4CC(c5ccccc5F)C4)ccc32)CC1 (single isomer, unassigned) [Compound 10a, 1-(5-(3-(2-fluorophenyl)azetidin-1-yl)-2,3-dihydro-1H-inden-1-yl)piperidine-4-carboxylic acid]"
6,1000 to 10000,"O=C(O)C1CCN(C2CCc3cc(N4CC(c5ccccc5F)C4)ccc32)CC1 (single isomer, unassigned) [Compound 10b, 1-(5-(3-(2-fluorophenyl)azetidin-1-yl)-2,3-dihydro-1H-inden-1-yl)piperidine-4-carboxylic acid]"
7,10 to 100,"Cc1cc(C2CN(c3c(Cl)cccc3Cl)C2)ccc1C(C)N1CCC(C(=O)O)CC1 (single isomer, unassigned) [Compound 16a, 1-(1-(4-(1-(2,6-dichlorophenyl)azetidin-3-yl)-2-methylphenyl)ethyl)piperidine-4-carboxylic acid]"
8,≤ 10,"Cc1cc(C2CN(c3c(Cl)cccc3Cl)C2)ccc1C(C)N1CCC(C(=O)O)CC1 (single isomer, unassigned) [Compound 16b, 1-(1-(4-(1-(2,6-dichlorophenyl)azetidin-3-yl)-2-methylphenyl)-ethyl)piperidine-4-carboxylic acid]"
9,10 to 100,"O=C(O)C1CCN(Cc2ccc(C3CN(c4c(Cl)cccc4Cl)C3)cc2)CC1 [Compound 11, 1-(4-(1-(2,6-dichlorophenyl)azetidin-3-yl)benzyl)piperidine-4-carboxylic acid]"
10,10 to 100,"O=C(O)[C@H]1CCN(Cc2ccc(C3CN(c4c(Cl)cccc4Cl)C3)cc2)C1 [Compound 12a, (S)-1-(4-(1-(2,6-dichlorophenyl)azetidin-3-yl)benzyl)pyrrolidine-3-carboxylic acid]"
11,≤ 10,"O=C(O)[C@@H]1CCN(Cc2ccc(C3CN(c4c(Cl)cccc4Cl)C3)cc2)C1 [Compound 12b, (R)-1-(4-(1-(2,6-dichlorophenyl)azetidin-3-yl)benzyl)pyrrolidine-3-carboxylic acid]"
12,≤ 10,"O=C(O)C1CN(Cc2ccc(C3CN(c4c(Cl)cccc4Cl)C3)cc2)C1 [Compound 13, 1-(4-(1-(2,6-dichlorophenyl)azetidin-3-yl)benzyl)azetidine-3-carboxylic acid]"
13,100 to 1000,"O=C(O)C1CCN(Cc2ccc(C3CN(c4c(F)cccc4F)C3)cc2)CC1 [Compound 14, 1-(4-(1-(2,6-difluorophenyl)azetidin-3-yl)benzyl)piperidine-4-carboxylic acid]"
14,≤ 10,"Cc1cc(C2CN(c3c(Cl)cccc3Cl)C2)cc(C)c1CN1CCC(C(=O)O)CC1 [Compound 15, 1-(4-(1-(2,6-dichlorophenyl)azetidin-3-yl)-2,6-dimethylbenzyl)piperidine-4-carboxylic acid]"

# Continued, molecule first:
row,Compound,EC50 [nM]
1,"Cc1cc(C2CN(c3c(Cl)cccc3Cl)C2)cc2c1C(N1CCC(C(=O)O)CC1)CC2 (racemic) [Compound 5, 1-(5-(1-(2,6-dichlorophenyl)azetidin-3-yl)-7-methyl-2,3-dihydro-1H-inden-1-yl)piperidine-4-carboxylic acid]",≤ 10
2,"O=C(O)C1CCN(C2CCc3cc(C4CN(c5c(Cl)cccc5Cl)C4)cc(F)c32)CC1 (racemic) [Compound 6, 1-(5-(1-(2,6-dichlorophenyl)azetidin-3-yl)-7-fluoro-2,3-dihydro-1H-inden-1-yl)piperidine-4-carboxylic acid]",≤ 10
3,"O=C(O)C1CCN(C2CCc3cc(C4CN(c5c(Cl)cccc5Cl)C4)ccc32)CC1 (single isomer, unassigned) [Compound 1a, 1-(5-(1-(2,6-dichlorophenyl)azetidin-3-yl)-2,3-dihydro-1H-inden-1-yl)piperidine-4-carboxylic acid]",≤ 10
4,"O=C(O)C1CCN(C2CCc3cc(C4CN(c5c(Cl)cccc5Cl)C4)ccc32)CC1 (single isomer, unassigned) [Compound 1b, 1-(5-(1-(2,6-dichlorophenyl)azetidin-3-yl)-2,3-dihydro-1H-inden-1-yl)piperidine-4-carboxylic acid]",100 to 1000
5,"O=C(O)C1CCN(C2CCc3cc(C4CN(c5c(F)cccc5F)C4)ccc32)CC1 (single isomer, unassigned) [Compound 2a, 1-(5-(1-(2,6-difluorophenyl)azetidin-3-yl)-2,3-dihydro-1H-inden-1-yl)-piperidine-4-carboxylic acid]",10 to 100
6,"O=C(O)C1CCN(C2CCc3cc(C4CN(c5c(F)cccc5F)C4)ccc32)CC1 (single isomer, unassigned) [Compound 2b, 1-(5-(1-(2,6-difluorophenyl)azetidin-3-yl)-2,3-dihydro-1H-inden-1-yl)-piperidine-4-carboxylic acid]",1000 to 10000
7,"O=C(O)C1CCN(C2CCc3cc(C4CN(c5cccc(F)c5)C4)ccc32)CC1 (single isomer, unassigned) [Compound 3a, 1-(5-(1-(3-fluorophenyl)azetidin-3-yl)-2,3-dihydro-1H-inden-1-yl)piperidine-4-carboxylic acid]",100 to 1000
8,"O=C(O)C1CCN(C2CCc3cc(C4CN(c5cccc(F)c5)C4)ccc32)CC1 (single isomer, unassigned) [Compound 3b, 1-(5-(1-(3-fluorophenyl)azetidin-3-yl)-2,3-dihydro-1H-inden-1-yl)piperidine-4-carboxylic acid]",1000 to 10000
9,"O=C(O)C1CCN(C2CCc3cc(C4CN(c5ccccc5F)C4)ccc32)CC1 (single isomer, unassigned) [Compound 4a, 1-(5-(1-(2-fluorophenyl)azetidin-3-yl)-2,3-dihydro-1H-inden-1-yl)piperidine-4-carboxylic acid]",10 to 100
10,"O=C(O)C1CCN(C2CCc3cc(C4CN(c5ccccc5F)C4)ccc32)CC1 (single isomer, unassigned) [Compound 4b, 1-(5-(1-(2-fluorophenyl)azetidin-3-yl)-2,3-dihydro-1H-inden-1-yl)piperidine-4-carboxylic acid]",1000 to 10000
11,"O=C(O)C1CCN(C2CCc3cc(C4CN(c5c(Cl)cccc5Cl)C4)ccc32)C1 (stereo not shown) [Compound 7, 1-(5-(1-(2,6-dichlorophenyl)azetidin-3-yl)-2,3-dihydro-1H-inden-1-yl)pyrrolidine-3-carboxylic acid]",≤ 10
